The record followed here is article PMC8769072, “Proteome‐scale mapping of binding sites in the unstructured regions of the human proteome” (Molecular Systems Biology, 2022).

This assay deals with immobilized GST-tagged bait protein domains. Put plainly: ProP-PD phage selections (HD2 P8, sublibraries, HD2 P3, HD1 P8) with NGS and confidence level. The format is binding, human.
Setting [1] is: bait KPNA4_Arm (O00629 68-487), HD2 library, benchmark motif instance recovered in the ProP-PD selection (TRUE/FALSE).
[2] abbreviates: bait MAP1LC3B_ATG8 (Q9GZQ8 2-119), HD2 library, benchmark motif instance recovered in the ProP-PD selection (TRUE/FALSE).
Where [3] appears, read: HD2 library, bait SUMO1_SUMO__P63165_1_101, known motif instance of the benchmarking set found (TRUE) or not found (FALSE) among selected peptides.
Where [4] appears, read: bait CRK_SH3_1_P46108_124_198, library HD2, benchmarking set of validated motif instances, TRUE = motif instance recovered in the ProP-PD selection.
Setting [5] is: HD2 library, bait TNKS_TANK-peptide-bind__O95271_174_649, known motif instance of the benchmarking set found (TRUE) or not found (FALSE) among selected peptides.
Where [6] appears, read: library HD2, bait EPS15_EH__P42566_121_215, best matching peptide.
[7] abbreviates: library HD2, bait EPS15_EH__P42566_121_215, confidence level of best matching peptide (4 High, 2-3 Medium, 1 Low).
The mark [8] stands for this setting: library HD2, bait EPS15_EH__P42566_121_215, whether the validated benchmark motif instance was recovered in the ProP-PD selection (TRUE/FALSE).
Where [9] appears, read: library HD2, bait YAP1_WW_1_P46937_169_207, validated benchmark motif instance, in_library_check TRUE, TRUE/FALSE = instance recovered in ProP-PD selection.

For SRHAQEPPAKRRKGSKGPEG-, under setting [1], the motif_found entry was “FALSE”.

For SRWEVIANYMNIHSSS, the HD2-1mM_CaCl confidence (bait CALM1 EF-hand (P0DP23, 2-149), HD2 library selection with 1mM_CaCl, confidence level (4 = High, 2 or 3 = Medium, 1 = Low)) was 3. For the setting “bait CALM1 EF-hand (P0DP23, 2-149), HD2 library selection, confidence level (4 = High, 2 or 3 = Medium, 1 = Low)”, this substance yielded an HD2 confidence of 3.

SSDGTCVAARTRPVLSCKKRR: for the setting “library HD2, bait WDR5_WD_1234567_P61964_21_334, validated benchmark motif instance, in_library_check TRUE, TRUE/FALSE = instance recovered in ProP-PD selection”, the motif_found result was “FALSE”.

On to SSGSSEDSFVEIRMAEGEA, for which the motif_found entry by setting is: (bait MAP1LC3A_ATG8 (Q9H492 2-121), HD2 library, benchmark motif instance recovered in the ProP-PD selection (TRUE/FALSE)) “FALSE”; under setting [2], “FALSE”.

Take SSHRKTKKPLPPTPEEDQILK: where the note is “library HD2, bait YES1_SH3__P07947_90_152, validated benchmark motif instance, in_library_check TRUE, TRUE/FALSE = instance recovered in ProP-PD selection”, the motif_found entry is “FALSE”.

On to SSKPNQKKLIVLSDSEVIQLSDG, for which, under setting [3], the motif_found result is “FALSE”.

For SSLEEPHSPETGEKVVAGEV, under “library HD2, bait Keap1_KELCH__Q14145_321_609, whether the validated benchmark motif instance was recovered in the ProP-PD selection (TRUE/FALSE)”, the motif_found entry was “FALSE”.

As to SSNPPTSVPTAPALSSVIAP, the motif_found result (HD2 library, bait TSG101_UEV__Q99816_1_145, known motif instance of the benchmarking set found (TRUE) or not found (FALSE) among selected peptides) is “FALSE”.

Regarding SSSSASGSYGHLSASAISPALS, the motif_found result (bait SUFU_SUFU__Q9UMX1_1_484, HD2 library, whether the validated benchmark motif instance was recovered in the ProP-PD selection (TRUE/FALSE)) was “FALSE”.

Take STAQEQDDVLIVDSDEEDSSNNADV: under setting [3], the motif_found entry is “FALSE”.

With STASKGRYIPPHLRNREATKG, the motif_found entry (library HD2, bait EIF4E_eIF4E__P06730_1_217, whether the validated benchmark motif instance was recovered in the ProP-PD selection (TRUE/FALSE)) is “FALSE”.

Take SVEFLDLAHSSESQETISS: the motif_found result (library HD2, bait USP7_MATH-TRAF__Q93009_53_206, validated benchmark motif instance, in_library_check TRUE, TRUE/FALSE = instance recovered in ProP-PD selection) is “FALSE”.

As to SVVSPPELPPRNIPLT, the HD confidence (bait CRK_SH3_1_P46108_124_198, library HD) stood at 2. This substance also displayed an HD2 confidence (bait CRK_SH3_1_P46108_124_198, library HD2 P8) of 4. Moreover, under “bait CRK_SH3_1_P46108_124_198, library HD2 P8 cytoplasm”, the HD2_cytoplasm confidence was 4. Besides, the HD2_nc confidence (bait CRK_SH3_1_P46108_124_198, library HD2 P8 nucleocytoplasmic) was 2. This substance also displayed an HD2_nc count proportions (bait CRK_SH3_1_P46108_124_198, library HD2 P8 nucleocytoplasmic, mean normalised NGS counts) of 6.106e-06. The substance also returned an HD2_nc mean counts (bait CRK_SH3_1_P46108_124_198, library HD2 P8 nucleocytoplasmic, mean raw NGS counts, all selections) of 1.0. In addition, the HD count proportions (bait CRK_SH3_1_P46108_124_198, library HD, mean normalised NGS counts) turned out to be 0.0001782. Where the note is “bait CRK_SH3_1_P46108_124_198, library HD, mean raw NGS counts, all selections”, this substance gave an HD mean counts of 3.0.

Substance SWVAFAHTGAWGTGLP came in with an HD2 confidence (bait AP2B1_adaptin__P63010_700_937, HD2 P8 selection, non primary paralogue peptide match, confidence level -4 to 4: 4 = High, 3 or 2 = Medium, 1 = Low, 0 = Filtered/Noise) of 4.

On to “TDEVPVPPPVPPRRRPESAP,DEVPVPPPVPPRRRPESAPA [SOS1]”, for which the motif_found result under setting [4] is listed as “FALSE”.

For TDYRPPDDAVFDIITDEELCQ, the motif_found result under setting [2] was “FALSE”.

Regarding TFNSYRKEWEELFVNNNYL [TBC1D5 58-62], the motif_found result is on record as “FALSE” (HD2 library, bait MAP1LC3A_ATG8__Q9H492_2_121, benchmark motif instance, in_library_check FALSE, in_library_coverage 0) and “FALSE” (HD2 library, bait MAP1LC3B_ATG8__Q9GZQ8_2_119, benchmark motif instance, in_library_check FALSE, in_library_coverage 0).

TGQPTKVGRFQVTTTA: for the setting “bait OXSR1___O95747_434_527, HD2 P8 cytoplasm sublibrary, confidence level (4 = High, 2-3 = Medium, 1 = Low)”, the HD2_cytoplasm confidence came out at 4.

In the case of THHNQASDIIVISSEDSEGSTDVDE, the motif_found entry under setting [3] is on record as “FALSE”.

In the case of TKSTVTGERQSGDGQESTEPVE, the motif_found entry under setting [5] is “FALSE”.

The substance TKVGRFQVTTTANKVG returned a best_confidence (bait OXSR1___O95747_434_527, HD2 library, confidence level (1-4) of best matching selected peptide) of 4. The substance further came in with a best_specificity (bait OXSR1___O95747_434_527, HD2 library, specificity score of best matching selected peptide) of 1. Moreover, the motif_found result (bait OXSR1___O95747_434_527, HD2 library, whether the validated benchmark motif instance was recovered in the ProP-PD selection (TRUE/FALSE)) is on record as “TRUE”.

Under “bait ANKRA2_Ank__Q9H9E1_142_313, library HD”, TLALPSLVPQNYTENK had an HD confidence of 2. Besides, the HD count proportions (bait ANKRA2_Ank__Q9H9E1_142_313, library HD, mean normalised NGS counts) came out at 0.0001017. For the same substance, the HD mean counts (bait ANKRA2_Ank__Q9H9E1_142_313, library HD, mean raw NGS counts, all selections) was 1.75.

On to TLDDSDEDVILVESQDPPLPS, for which, under setting [3], the motif_found result is given as “FALSE”.

In turn, TLVSPKLPSLEAPTSA displayed an HD2 confidence (bait ANKRA2_Ank__Q9H9E1_142_313, HD2 P8 selection, confidence level -4 to 4: 4 = High, 3 or 2 = Medium, 1 = Low, 0 = Filtered/Noise) of 3.

Regarding “TNAYKLPLAVGPPSLNYIPPVLQLS,LAVGPPSLNYIPP [TEX14]”, the motif_found entry (bait CEP55_EABR__Q53EZ4_160_217, library HD2, benchmarking set of validated motif instances, TRUE = motif instance recovered in the ProP-PD selection) is recorded as “TRUE”.

Consider TNGAMNVEIGNPTYKMYEGGEP, for which the motif_found entry (HD2 library, bait TLN1_PTB__Q9Y490_309_401, known motif instance of the benchmarking set found (TRUE) or not found (FALSE) among selected peptides) is reported as “FALSE”.

In turn, TNLYWPGTAEPLLVSS returned a confidence (library HD, bait AP2B1_adaptin__P63010_700_937, ProP-PD peptides with disease-related mutations) of 2.

The substance TNPFLNETLQDVQPSP yielded a best_specificity under setting [6] of 1. This substance also registered a best_confidence under setting [7] of 4. Moreover, under setting [8], the motif_found entry is recorded as “TRUE”.

Regarding TNPFQPAPPATLTLNQ, the best_specificity under setting [6] is 1. Further, the best_confidence under setting [7] is given as 4. The motif_found result under setting [8] is “TRUE”.

For the substance TPDSRRVARPPPIGAEVPDVTA, under setting [5], the motif_found entry is “FALSE”.

Take TPGAALSWQAAIDAARQAKLMG [CACNA1C]: the motif_found result (bait CALM1_EF-hand__P0DP23_2_149, library HD2, benchmarking set of validated motif instances, TRUE = motif instance recovered in the ProP-PD selection) is “FALSE”.

Consider TPPGAKASNPFLPGGGPAT, for which the motif_found result under setting [8] was “FALSE”.

Under “library HD2, bait YAP1_WW_1_P46937_169_207, confidence level of best matching selected peptide (4 High, 2-3 Medium, 1 Low)”, TPPPPYTVAPGRPLTA gave a best_confidence of 4. For the same substance, where the note is “library HD2, bait YAP1_WW_1_P46937_169_207, specificity score of best matching selected peptide”, the best_specificity turned out to be 1. The motif_found entry under setting [9] is reported as “TRUE”.

Regarding TPSYSISSTLNPQAPEFILGCTASKIT, the motif_found result (bait PABP-B_PABP__P11940_544_623, HD2 library, whether the validated benchmark motif instance was recovered in the ProP-PD selection (TRUE/FALSE)) was “FALSE”.

On to TPYTAYPPPAQAYGIP, for which the HD2_nc confidence (bait CEP55_EABR__Q53EZ4_160_217, HD2 P8 nucleocytoplasmic sublibrary, confidence level (4 = High, 2-3 = Medium, 1 = Low)) is recorded as 4. The same substance displayed an HD2_nc mean counts (bait CEP55_EABR__Q53EZ4_160_217, HD2 P8 nucleocytoplasmic sublibrary, mean NGS counts over replicate selections) of 482.0. Under “bait CEP55_EABR__Q53EZ4_160_217, HD2 P8 nucleocytoplasmic sublibrary, mean proportion of NGS counts”, this substance gave an HD2_nc count proportions of 0.008703.

As to TQRSKPQPAVPPRPSADLIL [NCF1], under setting [4], the motif_found result is recorded as “FALSE”.

In the case of TQVPGTPPPKYNTLRLER, the motif_found entry is on record as “FALSE” (bait NEDD4_WW_4_P46934_890_928, HD2 library, whether the validated benchmark motif instance was recovered in the ProP-PD selection (TRUE/FALSE)) and “FALSE” under setting [9].

In the case of TRKKTFKEVANAVKISASLMGT, where the note is “library HD2, bait CALM1_EF-hand__P0DP23_2_149, motif instance NOT in library (in_library_check FALSE, in_library_coverage 0)”, the motif_found result is listed as “FALSE”.

In the case of TSNNRLLNKRRKKQAGSSSA, the motif_found entry under setting [1] is on record as “FALSE”.
